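96-well plates; 48 h exposure; 5 concentrations. Endpoints by linear interpolation between flanking doses. Not reached: highest tested concentration assigned. At the TGI there is no net growth.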
Assays:
Test in all cases: NCI tumour cell line growth inhibition, 48 h
[1] = system: MDA-N
[2] = system: MDA-MB-231 breast
[3] = system: MALME-3M melanoma
[4] = system: SNB-78 CNS
[5] = system: XF 498 CNS
[6] = system: KM20L2 colon
[7] = system: LXFL 529 NSCLC
[8] = system: RXF-631 renal
[9] = system: DMS 114 small cell lung
[10] = system: DMS 273 small cell lung
[11] = system: M19-MEL melanoma
[12] = system: P388/ADR leukemia
[13] = system: DLD-1 colon
[14] = system: HOP-18 NSCLC
[15] = system: P388 leukemia
[16] = system: SN12K1 renal

Work on `Cc1cc(O)c(-c2cc(O)c(C)cc2O)cc1O` yielded a TGI [1] of 22.9 µM, a TGI [2] of 33.3 µM and a TGI [3] of 25.5 µM.
With `O=C1C=CC(=O)C(CNc2ccc(C(=O)OCc3ccccc3)cc2)=C1` the TGI [1] was 19.5 µM, the TGI [2] was 24.9 µM and the TGI [3] was 7.22 µM.
With `COc1cc(C(O)c2ccc3c(c2)OCO3)cc(OC)c1OC` (centres undefined) the TGI [1] was > 100 µM, the TGI [2] was > 100 µM and the TGI [3] was > 100 µM.
For `CON(C)C(=O)C1CCCO1` (centres undefined), the TGI [1] was > 100 µM and the TGI [2] was > 100 µM.
With `CCOC(=O)C1=CC(C)(C(=O)OCC)Nc2c(nc(N)[nH]c2=O)N1` (centres undefined) the TGI [1] was > 10 µM, the TGI [2] was > 10 µM and the TGI [3] was > 10 µM.
In the case of `CCOC(=O)C1CCC(=O)N1C(=O)c1ccccc1Cl` (centres undefined), the TGI [1] is reported as > 100 µM, the TGI [2] is reported as > 100 µM and the TGI [3] is reported as > 100 µM.
For `COc1ccc(OC)c2sc(N3C(=O)/C(=C/c4cccc([N+](=O)[O-])c4)N=C3c3ccccc3)nc12`, the TGI [1] was > 100 µM, the TGI [2] was > 100 µM and the TGI [3] was > 100 µM.
With `O=S1(=O)c2cnccc2NC(=NCc2ccccc2)N1c1ccccc1` the TGI [3] was > 100 µM.
In the case of `COc1cc2[nH]c(-c3ccccc3)cc(=O)c2c(OC)c1OC`, the TGI [1] is reported as > 100 µM, the TGI [2] is reported as > 100 µM and the TGI [3] is reported as > 100 µM.
`c1ccc(C2CC(=NC3CCCCC3)Nc3ccccc3N2)cc1` (centres undefined) was tested, and the TGI [1] was > 100 µM, the TGI [2] was > 100 µM and the TGI [3] was 50.1 µM.
For `CC1=NNC(=O)C1C1CC(c2c[nH]c3ccccc23)=NN=C1Cl` (centres undefined), the TGI [1] was > 100 µM, the TGI [2] was > 100 µM and the TGI [3] was > 100 µM.
In the case of `C[C@H]1OC(=O)[C@@H]2N=NN(Cc3ccccc3)[C@H]12`, the TGI [1] is reported as > 100 µM, the TGI [2] is reported as > 100 µM and the TGI [3] is reported as > 100 µM.
In the case of `N#Cc1c(-c2ccccc2)c2c([nH]c1=O)-c1cc([N+](=O)[O-])ccc1CCC2`, the TGI [1] is reported as > 100 µM, the TGI [2] is reported as > 100 µM and the TGI [3] is reported as > 100 µM.
Work on `CN(C)c1cccc2c1C(=O)C=CC21c2ccc(N(C)C)c3c(N(C)C)ccc(c23)C(c2ccccc2)C1c1ccccc1` (centres undefined) yielded a TGI [1] of 37 µM, a TGI [2] of 28.9 µM and a TGI [3] of 35.6 µM.
With `CN(C)CCCNC(=O)c1c(O)c2ccccc2n(C)c1=O` the TGI [1] was > 100 µM, the TGI [2] was > 100 µM and the TGI [3] was > 100 µM.
For `O=C1C(C(O)(C(F)(F)F)C(F)(F)F)CCC1C(O)(C(F)(F)F)C(F)(F)F` (centres undefined), the TGI [1] was > 81.8 µM, the TGI [2] was 17.9 µM and the TGI [3] was 17.9 µM.
`O=C(NN1C(=O)CSC1c1cccc(F)c1)c1ccncc1` (centres undefined) was tested, and the TGI [4] was > 100 µM, the TGI [5] was > 100 µM and the TGI [6] was > 100 µM. For the same compound, the TGI [7] was > 100 µM, the TGI [8] was > 100 µM and the TGI [9] was > 100 µM. For the same compound, the TGI [3] was > 100 µM and the TGI [10] was > 100 µM.
`C[C@H]1[C@H](C)CC[C@]2(C(=O)OC3OC(CO)C(O)C(O)C3O)CC[C@]3(C)C(=CC[C@@H]4[C@@]5(C)C[C@H]6OC(=O)c7cc(O)c(O)c(O)c7-c7c(cc(O)c(O)c7O)C(=O)O[C@@H]6C(CO)(CO)[C@@H]5CC[C@]43C)[C@H]12` (some centres undefined) was tested, and the TGI [1] was 72.7 µM, the TGI [2] was 33 µM and the TGI [3] was > 100 µM.
For `COc1cc(C2c3cc4c(cc3[C@@H](Nc3ccc5c(c3)OCO5)C3COC(=O)[C@H]23)OCO4)cc(OC)c1O` (some centres undefined), the TGI [11] was > 100 µM, the TGI [5] was 16.7 µM and the TGI [6] was > 24.3 µM. The TGI [12] was 710 nM, the TGI [13] was 5.45 µM and the TGI [14] was 11 µM. The TGI [15] was 393 nM, the TGI [16] was 5.82 µM and the TGI [3] was 10.1 µM. It also gave a TGI [10] of 1.4 µM.
For `Nc1ccc(-c2nn3c(COc4ccc(Cl)cc4)nnc3s2)cc1`, the TGI [2] was > 100 µM and the TGI [3] was > 100 µM.
For `COc1cc(/C=C2\CCC(C)/C(=C\c3cc(OC)c(OC)c(OC)c3)C2=O)cc(OC)c1OC` (centres undefined), the TGI [1] was 16.1 µM and the TGI [2] was > 100 µM.
For `COC(=O)[C@H](Cc1ccccc1)NC(=O)N(CCC#N)CCN(C(=O)N[C@@H](Cc1ccccc1)C(=O)OC)c1ccccc1`, the TGI [1] was 33.8 µM and the TGI [2] was 71 µM.
`CSc1nc2c(ncn2C2OC(CO)C(O)C(O)C2O)c(=O)[nH]1` (centres undefined) was tested, and the TGI [4] was > 100 µM, the TGI [11] was > 100 µM and the TGI [5] was > 100 µM. The TGI [6] was > 100 µM, the TGI [13] was > 100 µM and the TGI [14] was > 100 µM. For the same compound, the TGI [15] was > 100000 nM, the TGI [9] was > 100 µM and the TGI [16] was > 100 µM. For the same compound, the TGI [3] was > 100 µM and the TGI [10] was > 100 µM.
With `COC1C(O)C(O[C@H]2CC[C@@]3(C)C(CC[C@@H]4[C@@H]3CC[C@]3(C)[C@@H](C(C)OC5OC(CO)C(O)C(O)C5O)CC[C@]43O)C2)OC(C)C1OC1OC(CO)C(O)C(O)C1O` (some centres undefined) the TGI [1] was > 100 µM, the TGI [2] was > 100 µM and the TGI [3] was > 100 µM.
For `C/C(=N\Nc1nc2ccccc2s1)c1ccc2ccccc2n1`, the TGI [1] was > 100 µM, the TGI [2] was > 100 µM and the TGI [3] was > 100 µM.
In the case of `CC1(C)N=C2C(=O)c3c([nH]c4ccccc34)[C@]3(C)CCC1CC23` (some centres undefined), the TGI [1] is reported as > 6.25 µM, the TGI [2] is reported as > 6.25 µM and the TGI [3] is reported as > 6.25 µM.
`CCNc1ncnc2sc(SCc3ccccc3)nc12` was tested, and the TGI [1] was > 100 µM, the TGI [2] was > 100 µM and the TGI [3] was > 100 µM.
Work on `CC(C)/C(Cl)=N/OC(=O)Nc1ccc(OC(F)(F)F)cc1` yielded a TGI [1] of 26.2 µM, a TGI [2] of 32.5 µM and a TGI [3] of 6.5 µM.
With `CC1(C)CC(C#Cc2ccccc2)CC(C)(C)N1O` the TGI [1] was 29.9 µM, the TGI [2] was 29.8 µM and the TGI [3] was 32.9 µM.
For `CCN(CC)CCO/N=C1\CC[C@H]2[C@@H]3CCc4cc(OC)ccc4[C@H]3CC[C@]12C`, the TGI [1] was 3.66 µM, the TGI [2] was 8.54 µM and the TGI [3] was 3.28 µM.
With `CC1(C)OC2COC3([C@@H]4OC(C)(C)O[C@@H]4CO)OC(C)(C)OC3C2O1` (some centres undefined) the TGI [1] was > 100 µM and the TGI [2] was > 100 µM.
With `O=C(O)CN(CC(=O)O)C(C(=O)O)c1ccccc1` (centres undefined) the TGI [1] was > 100 µM, the TGI [2] was > 100 µM and the TGI [3] was > 100 µM.
